Tests used:
streptavidin = molecular target: T1, streptavidin (Streptomyces avidinii, UniProt P22629); assay: Streptavidin cross-linking with biotin compounds on streptavidin coated polystyrene plate using 125I labeled streptavidin (Example 7); type: binding; conditions: 100 pmol biotin compound, 25 pmol 125I streptavidin per well, up to 4 alternating additions
T1 construct: purchased Pierce
Text: This experiment was designed to test streptavidin cross-linking with biotin monomer, biotin dimers comprising water-soluble linkers, and biotin moiety trimers comprising water-soluble linkers. Each of the biotin dimers and trimers used experimentally was water-soluble. […] The biotin dimers used herein are structures 28, 29, and 30. The trimers used herein are structures 23 (page 26), 24 (page 26), and 31. The biotin monomer used herein is the N-[13-(p-iodobenzamido)4,7,10-trioxatridacanyl]biotinamide.
A Reacti-Bind Streptavidin Coated Polystyrene Strip Place (Pierce) was washed with 100 mM PBS prior to use. To lane one (12-wells) was added 100 μL PBS. To lanes 2–7 were added 100 pmol of biotin dimer or biotin trimer to be tested in 100 μL PBS. Lane 8 was treated in the same manner with 100 pmol of biotin monomer. The plate then was incubated at 37° C. with shaking for 10 minutes. All the wells then were emptied and rinsed with 100 μL PBS. The PBS was removed and 25 pmol of ^125I labeled streptavidin (specific activity of 1 μCi/ug) in 100 μL PBS was added to each well. […]
The first 9 wells in each lane were then filled with 100 μL PBS and the remaining 3 wells in each lane were filled with 100 μL of their respective dimer or trimer. […] The amount of activity remaining in each well was determined as a percentage of the highest initial streptavidin binding.

[1] = neutral pH and ambient temperature; cited from earlier work
[2] = Water solubility (dissolve in water, stand about 24 hours, centrifuge, HPLC of aqueous layer); type: physicochemical; conditions: pH 7, water, thermodynamic from solid, neutral pH and ambient temperature
Text: The solubility of biotin moieties in aqueous media is enhanced according to the present invention by attaching a water-soluble linker moiety, typically through the carboxylate group of the biotin. Water-soluble linker moieties, L, according to the present invention, compromise any linker moiety that, when conjugated or coupled (e.g., covalently bonded) to a biotin moiety and the cross-linker, C, increases the water solubility of the biotin-containing compound. […] Dissolving the compound in water, stirring the solution, and allowing the solution to stand at room temperature for about 24 hours determines solubility. The solution then is centrifuged and the resultant aqueous layer analyzed using high performance liquid chromatography (“HPLC”). The HPLC analysis is conducted with a gradient using acetonitrile or methanol and water as the solvent mixture on a reversed-phase column.

solubility [2] [µg/mL] | SMILES | other results
– | O=C(CCCC[C@@H]1SC[C@@H]2NC(=O)N[C@@H]21)NCCCOCCOCCOCCCNC(=O)c1ccc(I)cc1 [biotin monomer, N-[13-(p-iodobenzamido)4,7,10-trioxatridacanyl]biotinamide] | streptavidin binding as a function of sequential biotin compound additions (FIG. 1) (streptavidin): Neither the biotin monomer nor any of the biotin dimers tested demonstrated appreciable increases in streptavidin binding
– | O=C(O)CCCC[C@@H]1SC[C@@H]2NC(=O)N[C@@H]21 [biotin] | solubility in water [1]: approximately 0.2 mg/mL
> 200 | O=C(CCCCC1SCC2NC(=O)NC21)NCCCOCCOCCOCCNC(=O)c1cc(C(=O)NCCOCCOCCNC(=O)CCCCC2SCC3NC(=O)NC32)cc(C(=O)NCCOCCOCCNC(=O)CCCCC2SCC3NC(=O)NC32)c1 (centres unmarked) [structure 24] | –
> 200 | O=C(CCCCC1SCC2NC(=O)NC21)NCCCOCCOCCOCCCNC(=O)CCCCC1SCC2NC(=O)NC21 (centres unmarked) [structure 29] | –
> 200 | CC(CC(=O)NCCCOCCOCCOCCCNC(=O)CC(C)NC(=O)CCCCC1SCC2NC(=O)NC21)NC(=O)CCCCC1SCC2NC(=O)NC21 (centres unmarked) [structure 30] | –
> 200 | O=C(CCCCC1SCC2NC(=O)NC21)NCCOCCONC(=O)CCCCC1SCC2NC(=O)NC21 (centres unmarked) [structure 28] | –
> 200 | O=C(CCCCC1SCC2NC(=O)NC21)NCCCOCCOCCOCCCNC(=O)c1cc(C(=O)NCCCOCCOCCOCCCNC(=O)CCCCC2SCC3NC(=O)NC32)cc(C(=O)NCCCOCCOCCOCCCNC(=O)CCCCC2SCC3NC(=O)NC32)c1 (centres unmarked) [structure 23] | –
> 200 | CC(CC(=O)NCCCOCCOCCOCCCNC(=O)c1cc(C(=O)NCCCOCCOCCOCCCNC(=O)CC(C)NC(=O)CCCCC2SCC3NC(=O)NC32)cc(C(=O)NCCCOCCOCCOCCCNC(=O)CC(C)NC(=O)CCCCC2SCC3NC(=O)NC32)c1)NC(=O)CCCCC1SCC2NC(=O)NC21 (centres unmarked) [structure 31] | –
